From US6432426B1, “Non-staining topical iodine composition and method” (Symbollon Corporation, priority 1998, dated 2002)

Legend:
Human Skin = assay: Coloration of human skin by a 30 second exposure (vial contact on forearm); hue by Pantone chips, intensity against Brown No. 3 dye; format: in vivo
Excerpt: 1. […] Elemental iodine was weighed on an analytical balance and dissolved in one liter of water that had been acidified with 2 drops of 0.1N hydrochloric acid. The concentration of molecular iodine in the water was confirmed by potentiometric analysis (Gottardi, W., 1983. Fresenius Z. Anal. Chem., Vol. 314, pages 582-585). Samples were also titrated with thiosulfate to determine that at least 95% of the theoretical yield of titratable iodine was in the form of molecular iodine as opposed to triiodide. The concentration of molecular iodine was varied from 25 ppm to 330 ppm.
One dram vials (Kimble catalog #60931) were used to deliver 4 mL of the room temperature iodine solutions samples. The vials were placed on the forearm of a subject and then the forearm was inverted to initiate contact of the sample with the iodine solution. The contact area was a circle with a diameter of 1.3 cm. The samples were held on the arm for 30 seconds at room temperature. Three different subjects were used for this experiment. Immediately after the 30 second contact time the arms of the subjects were examined for stains; 10 minutes after the end of the contact time all subjects arms were examined for stains again..
For the purposes of this application, two different parameters were used to characterize the color and intensity of the term stain. The hue of the color imparted to skin was characterized by using the Pantone Color Matching System (Pantone Color Specifier, Pantone Inc., Carlstadt, N.J.) which allows comparison with 1,012 defined colors on two types of paper. Stains from triiodide were matched to the Pantone color chip No. 152C. Short-lived coloration from molecular iodine were matched to the Pantone color chip 1375C.
The intensity of any coloration on skin was characterized by applying an aqueous solution of known concentrations of a food dye, Brown No. 3 (Crompton & Knowles, Mahwah, N.J. —Code DP935159), for 10 seconds using the method described above for application of iodine. Brown No. 3 was applied to the skin at concentrations that ranged from 500 ppm to 30 ppm and the intensity of the color from Brown No. 3 was compared to the intensity of coloration from iodine compositions. For instance, the intensity of color 10 minutes after a 30 second contact with a 600 ppm aqueous triiodide solution was equivalent to the color from a 10 second exposure to a 250 ppm Brown No. 3 solution. In contrast, the intensity of color 10 minutes after a 30 second contact with a 300 ppm aqueous molecular iodine solution was equivalent to the color from a ten second exposure to a 30 ppm Brown No. 3 solution which is barely discernible.

Staphylococcus aureus = assay: Residual biocidal effect of skin associated iodine, colony counts from inoculated treated skin; format: in vivo; settings: solution with 700 ppm of triiodide, but no molecular iodine
Description: 5. […] […] […] […] The samples were contacted with the arm for 30 seconds. After contact the treated arm was flushed with water for 15 seconds and dried.
[…] Two hours after contact each area was inoculated with […] of a 1:100 dilution of a 48 hour soy-trypticase culture of Staphylococcus aureus. Ninety minutes after inoculation the mouths of sterile 25 mL flasks filled with 2 mL of soy-trypticase with 2% Tween 80 were placed over the marked skin areas. The flasks were gently shaken for 1 minute and a colony count was performed on blood agar plates after incubation at 37° C. for 48 hours. The residual biocidal effect from skin associated molecular iodine was determined by subtracting the log of the colony counts from the areas of skin that were contacted with iodine from the controls (log colony count from untreated skin). The average difference in colony counts between treated and untreated skin was 2.4 logs.

epidermis = assay: Staining of epidermis by triiodide solutions, 10 second contact on forearm; format: in vivo, human
Description: 3. […] Solutions of triiodide were prepared by dissolving elemental iodine into oxygen-free solutions of sodium iodide that were at a pH of 4.5. A molar excess of iodide was used. Based on thiosulfate titrations, potentiometric measurements of iodine and ion selective electrode measurements of iodide ion, essentially all of the elemental iodine was converted into triiodide. Solutions of triiodide were made that varied from 100 to 25,000 ppm. Four mL of each sample was transferred to a 1.0 dram vial (Kimble catalog #60931) at room temperature and placed on the forearm of a subject and then the forearm was inverted to initiate contact of the sample with the triiodide solution. The samples were held on the arm for 10 seconds.
The contact areas were checked for stains at 10 minutes and 3 hours after exposure.

I[IH]I [triiodide, reference compound]
Intensity of color on skin, equivalent Brown No. 3 solution (10 second exposure) (Human Skin; 10 minutes after a 30 second contact with a 600 ppm aqueous triiodide solution): 250 ppm | Hue of the color imparted to skin, matched Pantone color chip (Human Skin; Pantone Color Matching System): 152C | Reduction in the concentration of pathogens (Staphylococcus aureus): no measurable reduction | Staining at three hours (epidermis; 100 ppm triiodide): staining was present at three hours but it was not visibly noticeable | Degree of color (epidermis; 700 ppm triiodide, 3 hours after contact): minimally discernable | Coloration of the epidermis 3 hours after contact (epidermis; triiodide at concentrations from 25,000 to 700 ppm): A definite coloration of the epidermis was evident
